In PubChem BioAssay AID1259407 (Chemical Carcinogenesis Research Information System (CCRIS), 2018) one finds mutagenic call data, which are given here for 3 compounds.

For this data set, the system named is CCRIS mutagenicity, Ames/micronucleus/aberration tests. The data set is described as follows: CCRIS mutagenicity studies.
Setting [1] is: Test System: AMES SALMONELLA TYPHIMURIUM, Strain/Indicator: TA98, Metabolic Activation: NONE, Method: PREINCUBATION
Setting [2] is: Test System: AMES SALMONELLA TYPHIMURIUM, Strain/Indicator: TA100, Metabolic Activation: NONE, Method: PREINCUBATION
The mark [3] stands for this setting: Test System: AMES SALMONELLA TYPHIMURIUM, Strain/Indicator: TA1535, Metabolic Activation: NONE, Method: PREINCUBATION
[4] abbreviates: Test System: AMES SALMONELLA TYPHIMURIUM, Strain/Indicator: TA1535, Metabolic Activation: NONE, Method: STANDARD PLATE.

Calls of active or inactive are those of the source. The rule behind the calls is not given here.

Regarding `NCCNCCO`, the mutagenic call (Test System: AMES SALMONELLA TYPHIMURIUM, Strain/Indicator: TA98, Metabolic Activation: HAMSTER, LIVER, S-9, AROCLOR 1254 (10%), Method: PREINCUBATION) was “inactive; negative”; the mutagenic call under setting [1] is “inactive; negative”; the mutagenic call (Test System: AMES SALMONELLA TYPHIMURIUM, Strain/Indicator: TA98, Metabolic Activation: NONE, Method: STANDARD PLATE) was “inactive; negative”; the mutagenic call (Test System: AMES SALMONELLA TYPHIMURIUM, Strain/Indicator: TA98, Metabolic Activation: RAT, LIVER, S-9, AROCLOR 1254 (10%), Method: PREINCUBATION) was “inactive; negative”; the mutagenic call (Test System: AMES SALMONELLA TYPHIMURIUM, Strain/Indicator: TA98, Metabolic Activation: RAT, LIVER, S-9, AROCLOR 1254, Method: STANDARD PLATE) is “inactive; negative”; the mutagenic call (Test System: AMES SALMONELLA TYPHIMURIUM, Strain/Indicator: TA98, Metabolic Activation: RAT, LIVER, S-9, PCB, Method: PREINCUBATION) is “inactive; negative”. Moreover, the mutagenic call runs as follows: (Test System: AMES SALMONELLA TYPHIMURIUM, Strain/Indicator: TA100, Metabolic Activation: HAMSTER, LIVER, S-9, AROCLOR 1254 (10%), Method: PREINCUBATION) “inactive; negative”; under setting [2], “inactive; negative”; (Test System: AMES SALMONELLA TYPHIMURIUM, Strain/Indicator: TA100, Metabolic Activation: NONE, Method: STANDARD PLATE) “inactive; negative”; (Test System: AMES SALMONELLA TYPHIMURIUM, Strain/Indicator: TA100, Metabolic Activation: RAT, LIVER, S-9, AROCLOR 1254 (10%), Method: PREINCUBATION) “inactive; negative”; (Test System: AMES SALMONELLA TYPHIMURIUM, Strain/Indicator: TA100, Metabolic Activation: RAT, LIVER, S-9, AROCLOR 1254, Method: STANDARD PLATE) “inactive; negative”; (Test System: AMES SALMONELLA TYPHIMURIUM, Strain/Indicator: TA100, Metabolic Activation: RAT, LIVER, S-9, PCB, Method: PREINCUBATION) “inactive; negative”. Also, the mutagenic call runs as follows: (Test System: AMES SALMONELLA TYPHIMURIUM, Strain/Indicator: TA1535, Metabolic Activation: HAMSTER, LIVER, S-9, AROCLOR 1254 (10 OR 12%), Method: PREINCUBATION) “active; positive”; under setting [3], “inactive; negative”; under setting [4], “inactive; negative”; (Test System: AMES SALMONELLA TYPHIMURIUM, Strain/Indicator: TA1535, Metabolic Activation: RAT, LIVER, S-9, AROCLOR 1254 (10%), Method: PREINCUBATION) “active; positive”; (Test System: AMES SALMONELLA TYPHIMURIUM, Strain/Indicator: TA1535, Metabolic Activation: RAT, LIVER, S-9, AROCLOR 1254, Method: STANDARD PLATE) “inactive; negative”; (Test System: AMES SALMONELLA TYPHIMURIUM, Strain/Indicator: TA1537, Metabolic Activation: HAMSTER, LIVER, S-9, AROCLOR 1254 (10%), Method: PREINCUBATION) “inactive; negative”. Besides, the mutagenic call reads like this: (Test System: AMES SALMONELLA TYPHIMURIUM, Strain/Indicator: TA1537, Metabolic Activation: NONE, Method: PREINCUBATION) “inactive; negative”; (Test System: AMES SALMONELLA TYPHIMURIUM, Strain/Indicator: TA1537, Metabolic Activation: NONE, Method: STANDARD PLATE) “inactive; negative”; (Test System: AMES SALMONELLA TYPHIMURIUM, Strain/Indicator: TA1537, Metabolic Activation: RAT, LIVER, S-9, AROCLOR 1254 (10%), Method: PREINCUBATION) “inactive; negative”; (Test System: AMES SALMONELLA TYPHIMURIUM, Strain/Indicator: TA1537, Metabolic Activation: RAT, LIVER, S-9, AROCLOR 1254, Method: STANDARD PLATE) “inactive; negative”; (Test System: AMES SALMONELLA TYPHIMURIUM, Strain/Indicator: TA1538, Metabolic Activation: NONE, Method: STANDARD PLATE) “inactive; negative”; (Test System: AMES SALMONELLA TYPHIMURIUM, Strain/Indicator: TA1538, Metabolic Activation: RAT, LIVER, S-9, AROCLOR 1254, Method: STANDARD PLATE) “inactive; negative”. The mutagenic call was “inactive; negative” (Test System: CHINESE HAMSTER OVARY, Strain/Indicator: CHO (HGPRT)/6-THIOGUANINE, Metabolic Activation: NONE); “inactive; negative” (Test System: CHINESE HAMSTER OVARY, Strain/Indicator: CHO (HGPRT)/6-THIOGUANINE, Metabolic Activation: RAT, LIVER, S-9, AROCLOR 1254); “inactive; negative” (Test System: UDS RAT HEPATOCYTES, Strain/Indicator: THY INCORP, Metabolic Activation: NONE, Method: SCINTILLATION SPECTROMETRY).

Turning to `CCCCC(CC)COC(=O)c1ccc(C(=O)OCC(CC)CCCC)c(C(=O)OCC(CC)CCCC)c1` (configuration not stated), the mutagenic call by setting is: (Test System: AMES SALMONELLA TYPHIMURIUM, Strain/Indicator: TA97, Metabolic Activation: HAMSTER, LIVER, S-9, AROCLOR 1254 (10 OR 30%), Method: PREINCUBATION) “inactive; negative”; (Test System: AMES SALMONELLA TYPHIMURIUM, Strain/Indicator: TA97, Metabolic Activation: NONE, Method: PREINCUBATION) “inactive; negative”; (Test System: AMES SALMONELLA TYPHIMURIUM, Strain/Indicator: TA97, Metabolic Activation: RAT, LIVER, S-9, AROCLOR 1254 (10 OR 30%), Method: PREINCUBATION) “inactive; negative”; (Test System: AMES SALMONELLA TYPHIMURIUM, Strain/Indicator: TA98, Metabolic Activation: HAMSTER, LIVER, S-9, AROCLOR 1254 (10 OR 30%), Method: PREINCUBATION) “inactive; negative”; under setting [1], “inactive; negative”; (Test System: AMES SALMONELLA TYPHIMURIUM, Strain/Indicator: TA98, Metabolic Activation: RAT, LIVER, S-9, AROCLOR 1254 (10 OR 30%), Method: PREINCUBATION) “inactive; negative”. The mutagenic call runs as follows: (Test System: AMES SALMONELLA TYPHIMURIUM, Strain/Indicator: TA100, Metabolic Activation: HAMSTER, LIVER, S-9, AROCLOR 1254 (10 OR 30%), Method: PREINCUBATION) “inactive; negative”; under setting [2], “inactive; negative”; (Test System: AMES SALMONELLA TYPHIMURIUM, Strain/Indicator: TA100, Metabolic Activation: RAT, LIVER, S-9, AROCLOR 1254 (10 OR 30%), Method: PREINCUBATION) “inactive; negative”; (Test System: AMES SALMONELLA TYPHIMURIUM, Strain/Indicator: TA1535, Metabolic Activation: HAMSTER, LIVER, S-9, AROCLOR 1254 (10 OR 30%), Method: PREINCUBATION) “inactive; negative”; under setting [3], “inactive; negative”; (Test System: AMES SALMONELLA TYPHIMURIUM, Strain/Indicator: TA1535, Metabolic Activation: RAT, LIVER, S-9, AROCLOR 1254 (10 OR 30%), Method: PREINCUBATION) “inactive; negative”.

Turning to `N=NCO`, the mutagenic call runs as follows: under setting [4], “active; positive”; (Test System: E. COLI, Strain/Indicator: WP2, Metabolic Activation: NONE, Method: STANDARD PLATE) “active; positive”; (Test System: E. COLI, Strain/Indicator: WP2 UVRA, Metabolic Activation: NONE, Method: STANDARD PLATE) “active; positive”.
